This is an account of results in US12060347B2 (BRISTOL-MYERS SQUIBB COMPANY, priority 2016, dated 2024).

In this assay the target is T1, human PAR4 (Homo sapiens, UniProt Q96RI0).
T1 construct: expressed in transfected cells; host or cells: HEK293 PAR4 Clone 1.2A (BMS Arctic ID 383940)
T1 sequence (Q96RI0 18-385): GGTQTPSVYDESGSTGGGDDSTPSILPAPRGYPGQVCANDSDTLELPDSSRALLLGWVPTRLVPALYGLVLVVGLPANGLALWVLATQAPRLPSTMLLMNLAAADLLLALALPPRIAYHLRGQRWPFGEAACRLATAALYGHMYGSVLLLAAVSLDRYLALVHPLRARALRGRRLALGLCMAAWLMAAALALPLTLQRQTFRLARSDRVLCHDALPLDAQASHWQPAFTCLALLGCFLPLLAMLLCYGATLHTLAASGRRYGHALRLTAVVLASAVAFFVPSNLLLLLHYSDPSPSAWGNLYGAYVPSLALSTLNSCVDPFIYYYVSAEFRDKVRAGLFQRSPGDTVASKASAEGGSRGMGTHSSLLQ
Nature of the assay: PAR4 FLIPR assay: antagonism of agonist-peptide-induced calcium mobilization in PAR4-expressing HEK293 cells. It counts as cell-based. The conditions noted are these: H-Ala-Phe(4-F)-[…]NH2-induced intracellular calcium mobilization, 11-point curves. A general note: Calcium flux is commonly read through the fluorescence of an indicator in the cells.

A word on the IC50: it is the concentration that gives 50% inhibition. For `COc1cnc2c(-c3nc4c(C)c(F)c(OC)cc4s3)cc(C(O)c3ccccc3)cc2n1` (stereo not drawn) [Example 245, (8-(5-fluoro-6-methoxy-4-methylbenzo[d]thiazol-2-yl)-3-methoxyquinoxalin-6-yl) (phenyl)methanol], the IC50 came out at 92 nM.
`COc1cnc2c(-c3nc4c(Cl)c(F)c(OC[C@@H](C)OC(=O)Nc5cnc(Cl)nc5)cc4s3)cc(C)cc2n1` [Example 401, (R)-1-((4-chloro-5-fluoro-2-(2-methoxy-7-methylquinoxalin-5-yl)benzo[d]thiazol-6-yl)oxy)propan-2-yl (2-chloropyrimidin-5-yl)carbamate]: the IC50 turned out to be 2.7 nM.
The value for `COCc1cnc2c(-c3nc4c(C)cc(OCc5ccccc5)cc4s3)cc(C)cc2n1` [Example 307, 6-(benzyloxy)-2-(2-(methoxymethyl)-7-methylquinoxalin-5-yl)-4-methylbenzo[d]thiazole] was 0.9 nM; that for `COc1cnc2c(-c3nc4c(Cl)c(F)c(OC[C@@H](C)OC(=O)Nc5cnc(C)nc5)cc4s3)cc(C)cc2n1` [Example 589, (R)-1-((4-chloro-5-fluoro-2-(2-methoxy-7-methylquinoxalin-5-yl)benzo[d]thiazol-6-yl)oxy)propan-2-yl (2-methylpyrimidin-5-yl)carbamate] was 0.8 nM.
With `COc1cnc2c(-c3nc4cc(F)c(OCC(COCC(C)C)OC(=O)Nc5cccnc5)cc4s3)cc(C)cc2n1` (stereo not drawn) [Example 379, 1-((5-fluoro-2-(2-methoxy-7-methylquinoxalin-5-yl)benzo[d]thiazol-6-yl)oxy)-3-isobutoxypropan-2-yl pyridin-3-ylcarbamate], the 50% inhibitory concentration (IC50) came out at 1.7 nM.
With `COc1cnc2c(-c3nc4cnccc4s3)cc(C)cc2n1` [Example 809, 2-(2-methoxy-7-methylquinoxalin-5-yl)thiazolo[4,5-c]pyridine], the IC50 was 54 nM.
The same measure for `COc1cnc2c(-c3nc4cc(F)c(O[C@@H](C)[C@@H](C)OC(=O)Nc5ccc(OCCO)nc5)nc4s3)cc(Cl)cc2c1` [Example 779, (2R,3S)-3-((2-(6-chloro-3-methoxyquinolin-8-yl)-6-fluorothiazolo[5,4-b]pyridin-5-yl)oxy) butan-2-yl (6-(2-hydroxyethoxy)pyridin-3-yl)carbamate]: 3.3 nM; for `COC(=O)NCCOc1ccc2oc(-c3cc(C)cc4nc(OC(F)F)cnc34)cc2c1` [Example 46, methyl 2-(2-(2-(difluoromethoxy)-7-methylquinoxalin-5-yl)benzofuran-5-yloxy)ethylcarbamate]: 17 nM; for `COc1cnc2c(-c3nc4cc(F)c(OC[C@@H](C)OC(=O)Nc5ccc(NC(C)=O)nc5)cc4s3)cc(C)cc2n1` [Example 610, (R)-1-((5-fluoro-2-(2-methoxy-7-methylquinoxalin-5-yl)benzo[d]thiazol-6-yl)oxy)propan-2-yl (6-acetamidopyridin-3-yl)carbamate]: 4.3 nM.
The value for `COc1cnc2c(-c3nc4cc(F)c(O[C@@H](C)[C@@H](C)OC(=O)Nc5ccnc(C(=O)NC[C@H](C)O)c5)cc4s3)cc(C)cc2n1` [Example 461, (2R,3S)-3-((5-fluoro-2-(2-methoxy-7-methylquinoxalin-5-yl)benzo[d]thiazol-6-yl)oxy)butan-2-yl (2-(((S)-2-hydroxypropyl)carbamoyl)pyridin-4-yl)carbamate] was 0.4 nM.
Consider `CNC(=O)c1ncc(NC(=O)O[C@H](C)COc2cc3sc(-c4cc(C)cc5nc(OC)cnc45)nc3cc2F)cn1` [Example 430, (R)-1-((5-fluoro-2-(2-methoxy-7-methylquinoxalin-5-yl)benzo[d]thiazol-6-yl)oxy)propan-2-yl (2-(methylcarbamoyl)pyrimidin-5-yl)carbamate], for which the concentration for half-maximal inhibition (IC50) amounted to 0.9 nM.
As to `COc1cnc2c(-c3nc4cc(F)c(O[C@@H](C)[C@@H](C)OC(=O)Nc5ccc(C)nc5)cc4s3)cc(C#N)cc2n1` [Example 823, (2R,3S)-3-((2-(7-cyano-2-methoxyquinoxalin-5-yl)-5-fluorobenzo[d]thiazol-6-yl)oxy)butan-2-yl (6-methylpyridin-3-yl)carbamate], the IC50 was 5.1 nM.
